In ChEMBL document CHEMBL1287687, “5-benzyloxytryptamine as an antagonist of TRPM8” (Bioorg Med Chem Lett, 2010):
Active and inactive are the calls of the source. The rule behind the calls is not given here.

Key:
[1] = molecular target: T1, Transient receptor potential cation channel subfamily M member 8 (Homo sapiens, UniProt Q7Z2W7); assay: Antagonist activity at human TRPM8 receptor expressed in human T-REx-293 cells assessed as inhibition of icilin-induced 45calcium influx treated 5 mins before icilin challenge measured after 5 mins; format: functional, cell-based, HEK293
Target sequence in this assay (Q7Z2W7 whole entry): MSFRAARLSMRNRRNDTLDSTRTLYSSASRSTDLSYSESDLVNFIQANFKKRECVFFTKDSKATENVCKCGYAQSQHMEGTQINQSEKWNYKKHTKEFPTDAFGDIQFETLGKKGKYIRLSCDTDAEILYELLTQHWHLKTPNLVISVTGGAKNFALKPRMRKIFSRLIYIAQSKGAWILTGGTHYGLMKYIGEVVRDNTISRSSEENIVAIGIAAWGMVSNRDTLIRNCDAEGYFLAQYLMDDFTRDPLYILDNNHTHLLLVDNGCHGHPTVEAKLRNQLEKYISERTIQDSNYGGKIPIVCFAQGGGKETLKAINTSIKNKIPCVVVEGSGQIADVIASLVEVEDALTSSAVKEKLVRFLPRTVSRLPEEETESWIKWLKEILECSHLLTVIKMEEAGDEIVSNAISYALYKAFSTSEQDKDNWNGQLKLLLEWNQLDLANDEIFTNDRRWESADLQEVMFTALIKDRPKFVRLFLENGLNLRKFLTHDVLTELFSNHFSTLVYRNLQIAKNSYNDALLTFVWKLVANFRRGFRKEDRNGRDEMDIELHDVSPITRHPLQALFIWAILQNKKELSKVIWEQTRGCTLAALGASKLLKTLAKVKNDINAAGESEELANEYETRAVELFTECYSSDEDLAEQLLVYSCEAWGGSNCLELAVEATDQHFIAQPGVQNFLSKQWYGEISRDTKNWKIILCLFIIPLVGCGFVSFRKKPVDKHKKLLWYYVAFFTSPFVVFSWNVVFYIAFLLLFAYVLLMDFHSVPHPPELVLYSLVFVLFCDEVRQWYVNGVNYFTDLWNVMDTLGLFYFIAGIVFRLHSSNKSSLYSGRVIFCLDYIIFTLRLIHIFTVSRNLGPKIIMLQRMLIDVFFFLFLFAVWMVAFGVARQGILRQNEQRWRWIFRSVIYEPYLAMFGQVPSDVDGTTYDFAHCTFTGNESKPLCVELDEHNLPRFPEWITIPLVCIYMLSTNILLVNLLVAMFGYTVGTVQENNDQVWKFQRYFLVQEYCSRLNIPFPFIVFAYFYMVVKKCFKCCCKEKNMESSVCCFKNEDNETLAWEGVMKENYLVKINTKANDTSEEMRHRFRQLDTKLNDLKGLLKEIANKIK

[2] = molecular target: T1, Transient receptor potential cation channel subfamily M member 8; assay: Antagonist activity at human TRPM8 receptor expressed in human T-REx-293 cells assessed as inhibition of menthol-induced 45calcium influx treated 5 mins before menthol challenge measured after 5 mins; format: functional, cell-based, HEK293
Target sequence in this assay (Q7Z2W7 whole entry): as above

[3] = molecular target: T1, Transient receptor potential cation channel subfamily M member 8; conditions: HEK293, 1 uM
Target sequence in this assay (Q7Z2W7 whole entry, looked up): as the sequence (Q7Z2W7 whole entry) above
Description: Antagonist activity at human TRPM8 receptor expressed in HEK cells assessed as inhibition of WS-12-stimulated current at 1 uM pretreated for 2 mins by patch clamp assay

[4] = molecular target: Transient receptor potential cation channel subfamily V member 4 (Homo sapiens) (UniProt Q9HBA0); assay: Inhibition of TRPV4 receptor up to 10 uM
Sequence of Transient receptor potential cation channel subfamily V member 4 (Homo sapiens) (Q9HBA0 whole entry): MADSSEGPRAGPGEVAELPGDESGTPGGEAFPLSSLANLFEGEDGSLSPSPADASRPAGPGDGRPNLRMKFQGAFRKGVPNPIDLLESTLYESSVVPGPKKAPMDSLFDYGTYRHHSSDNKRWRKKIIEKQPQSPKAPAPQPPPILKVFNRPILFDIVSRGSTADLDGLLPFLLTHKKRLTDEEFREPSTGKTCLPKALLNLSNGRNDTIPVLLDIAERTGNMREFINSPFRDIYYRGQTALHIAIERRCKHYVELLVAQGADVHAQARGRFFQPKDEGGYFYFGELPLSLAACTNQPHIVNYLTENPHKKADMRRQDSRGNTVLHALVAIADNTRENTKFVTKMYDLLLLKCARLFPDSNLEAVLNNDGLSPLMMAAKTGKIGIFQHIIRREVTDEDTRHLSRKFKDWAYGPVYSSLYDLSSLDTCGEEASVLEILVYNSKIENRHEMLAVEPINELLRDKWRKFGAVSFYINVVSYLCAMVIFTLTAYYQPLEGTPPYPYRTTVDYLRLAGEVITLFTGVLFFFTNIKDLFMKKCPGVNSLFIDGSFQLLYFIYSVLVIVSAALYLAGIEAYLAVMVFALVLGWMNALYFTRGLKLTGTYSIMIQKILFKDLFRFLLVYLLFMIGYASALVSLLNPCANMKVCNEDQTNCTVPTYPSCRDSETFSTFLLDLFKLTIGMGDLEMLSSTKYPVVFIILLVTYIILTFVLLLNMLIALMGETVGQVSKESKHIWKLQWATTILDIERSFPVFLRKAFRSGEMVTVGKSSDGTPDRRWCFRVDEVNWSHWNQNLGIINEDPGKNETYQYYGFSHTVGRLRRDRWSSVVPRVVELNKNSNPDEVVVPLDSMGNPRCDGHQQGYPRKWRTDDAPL

[5] = molecular target: Transient receptor potential cation channel subfamily V member 1 (Homo sapiens) (UniProt Q8NER1); assay: Inhibition of TRPV1 receptor up to 10 uM
Sequence of Transient receptor potential cation channel subfamily V member 1 (Homo sapiens) (Q8NER1 whole entry): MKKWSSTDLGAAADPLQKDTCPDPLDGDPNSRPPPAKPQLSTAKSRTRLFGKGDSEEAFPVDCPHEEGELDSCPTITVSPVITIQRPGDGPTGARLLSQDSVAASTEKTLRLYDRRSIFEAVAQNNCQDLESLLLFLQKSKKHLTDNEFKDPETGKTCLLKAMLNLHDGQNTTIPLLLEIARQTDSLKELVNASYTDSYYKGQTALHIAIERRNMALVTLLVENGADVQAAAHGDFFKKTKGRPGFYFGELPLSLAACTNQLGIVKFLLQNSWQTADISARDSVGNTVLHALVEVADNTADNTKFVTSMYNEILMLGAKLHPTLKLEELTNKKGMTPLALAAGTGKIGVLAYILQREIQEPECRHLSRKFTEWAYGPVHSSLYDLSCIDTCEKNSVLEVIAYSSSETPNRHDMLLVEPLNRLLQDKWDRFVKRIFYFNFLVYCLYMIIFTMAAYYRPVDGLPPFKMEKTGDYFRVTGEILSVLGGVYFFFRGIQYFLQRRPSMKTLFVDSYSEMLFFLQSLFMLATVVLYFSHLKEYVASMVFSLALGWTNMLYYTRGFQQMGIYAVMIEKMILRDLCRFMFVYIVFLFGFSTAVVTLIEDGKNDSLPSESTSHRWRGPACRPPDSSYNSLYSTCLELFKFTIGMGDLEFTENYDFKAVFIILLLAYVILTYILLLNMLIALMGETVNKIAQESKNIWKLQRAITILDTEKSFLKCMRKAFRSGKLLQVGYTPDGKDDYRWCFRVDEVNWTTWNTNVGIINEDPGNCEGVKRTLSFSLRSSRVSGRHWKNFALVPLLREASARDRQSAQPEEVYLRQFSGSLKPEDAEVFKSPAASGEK

[6] = molecular target: Transient receptor potential cation channel subfamily A member 1 (Homo sapiens) (UniProt O75762); assay: Inhibition of TRPA1 receptor up to 10 uM
Sequence of Transient receptor potential cation channel subfamily A member 1 (Homo sapiens) (O75762 whole entry): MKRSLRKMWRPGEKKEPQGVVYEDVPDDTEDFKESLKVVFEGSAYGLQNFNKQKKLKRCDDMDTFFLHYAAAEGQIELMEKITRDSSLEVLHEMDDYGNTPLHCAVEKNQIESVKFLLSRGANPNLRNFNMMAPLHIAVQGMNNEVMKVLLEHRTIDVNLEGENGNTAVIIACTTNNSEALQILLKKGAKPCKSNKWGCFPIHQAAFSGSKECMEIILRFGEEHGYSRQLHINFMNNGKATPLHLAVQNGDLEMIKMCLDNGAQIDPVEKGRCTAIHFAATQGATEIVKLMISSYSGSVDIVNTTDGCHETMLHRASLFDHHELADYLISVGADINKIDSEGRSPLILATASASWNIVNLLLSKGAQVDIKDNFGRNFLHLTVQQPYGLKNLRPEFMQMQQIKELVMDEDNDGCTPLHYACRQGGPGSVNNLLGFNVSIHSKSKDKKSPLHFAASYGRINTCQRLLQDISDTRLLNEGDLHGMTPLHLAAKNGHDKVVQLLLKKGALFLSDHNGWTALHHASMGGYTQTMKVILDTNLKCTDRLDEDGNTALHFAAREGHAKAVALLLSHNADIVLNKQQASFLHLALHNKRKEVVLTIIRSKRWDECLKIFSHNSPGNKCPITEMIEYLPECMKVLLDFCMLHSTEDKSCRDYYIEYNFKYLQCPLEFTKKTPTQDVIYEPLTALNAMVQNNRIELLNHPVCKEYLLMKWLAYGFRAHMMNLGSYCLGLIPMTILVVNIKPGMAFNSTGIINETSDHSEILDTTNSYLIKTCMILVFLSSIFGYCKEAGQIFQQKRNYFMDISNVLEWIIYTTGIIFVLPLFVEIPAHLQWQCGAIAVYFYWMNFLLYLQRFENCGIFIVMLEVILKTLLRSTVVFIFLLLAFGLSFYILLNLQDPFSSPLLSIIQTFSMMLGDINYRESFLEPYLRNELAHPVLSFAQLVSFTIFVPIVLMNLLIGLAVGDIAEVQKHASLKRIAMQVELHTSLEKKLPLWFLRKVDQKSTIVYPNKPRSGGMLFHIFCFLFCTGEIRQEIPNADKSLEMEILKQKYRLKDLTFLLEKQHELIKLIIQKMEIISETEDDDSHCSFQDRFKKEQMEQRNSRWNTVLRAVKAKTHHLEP

[7] = molecular target: T1, Transient receptor potential cation channel subfamily M member 8; assay: Antagonist activity at human TRPM8 receptor expressed in HEK cells assessed as inhibition of WS-12-stimulated current at 100 uM pretreated for 2 mins by patch clamp assay; format: functional, cell-based; conditions: HEK293
Target sequence in this assay (Q7Z2W7 whole entry, looked up): as the sequence (Q7Z2W7 whole entry) above

SMILES | IC50 [1] | IC50 ([2]; read-out: IC50) | also measured
NCCc1c[nH]c2ccc(Br)cc12 | 30.4 µM | 22.7 µM | –
N#CCc1c[nH]c2ccc(OCc3ccccc3)cc12 | – | – | IC50 ([2]; hek293): Not Active
NCCc1c[nH]c2ccc(OCc3ccccc3)cc12 [5-BENZYLOXYTRYPTAMINE] | 0.66 µM | 0.34 µM | inhibition [3]: Active; inhibition [4]: inactive; inhibition [5]: inactive; inhibition [6]: inactive
CN(C)CCc1c[nH]c2ccc(OCc3ccccc3)cc12 | 5.96 µM | 5.63 µM | –
NCCc1c[nH]c2ccc(Cl)cc12 | 32.2 µM | 21.5 µM | –
c1ccc(COc2ccc3[nH]ccc3c2)cc1 | – | – | IC50 ([2]; hek293): Not Active
NCCc1c[nH]c2ccc(F)cc12 | 13.1 µM | 12.3 µM | –
COc1ccc2[nH]cc(CCN)c2c1 [5-METHOXYTRYPTAMINE] | 11.6 µM | 12.4 µM | –
NCCc1c[nH]c2ccc(O)cc12 | – | – | inhibition [7]: inactive
CCOC(=O)NCCc1c[nH]c2ccc(OCc3ccccc3)cc12 | 28.8 µM | 21.6 µM | –
Cc1[nH]c2ccc(OCc3ccccc3)cc2c1CCN | 2.36 µM | 1.5 µM | –
NCCc1c[nH]c2c(OCc3ccccc3)cccc12 | 8.93 µM | 3.34 µM | –
